# Test results reported in ChEMBL document CHEMBL1795325, “Studying synergism of methyl linked cyclohexyl thiophenes with triazole: synthesis and their cdk5/p25 inhibition activity” (Eur J Med Chem, 2011).
# Legend:
# [1] = biological target: Cyclin-dependent kinase 5/CDK5 activator 1 (Homo sapiens, UniProt Q00535); format: protein-complex assay
# Vero = experiment: Cytotoxicity against african green monkey Vero C1008 cells at 6.25 to 50 ug/ml by neutral red uptake assay; format: cell-based; conditions: chlorocebus sabaeus
# [2] = biological target: Cyclin-dependent kinase 2/cyclin E1 (Homo sapiens, UniProt P24941); experiment: Inhibition of CDK2/Cyclin E by scintillation proximity assay; format: protein-complex assay
# [3] = Selectivity ratio, ratio of IC50 for CDK2/Cyclin E to IC50 for CDK5/p25
# Sequence of Cyclin-dependent kinase 5/CDK5 activator 1 (Q00535 whole entry): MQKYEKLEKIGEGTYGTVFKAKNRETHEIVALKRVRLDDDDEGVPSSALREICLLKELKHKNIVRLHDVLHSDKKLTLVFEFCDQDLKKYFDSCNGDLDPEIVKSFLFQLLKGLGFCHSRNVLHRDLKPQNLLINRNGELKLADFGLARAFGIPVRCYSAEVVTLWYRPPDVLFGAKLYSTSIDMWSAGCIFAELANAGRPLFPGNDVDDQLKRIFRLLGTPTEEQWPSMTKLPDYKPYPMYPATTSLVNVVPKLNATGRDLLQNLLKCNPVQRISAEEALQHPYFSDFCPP
# Sequence of Cyclin-dependent kinase 5/CDK5 activator 1 (Q15078 whole entry, further chain): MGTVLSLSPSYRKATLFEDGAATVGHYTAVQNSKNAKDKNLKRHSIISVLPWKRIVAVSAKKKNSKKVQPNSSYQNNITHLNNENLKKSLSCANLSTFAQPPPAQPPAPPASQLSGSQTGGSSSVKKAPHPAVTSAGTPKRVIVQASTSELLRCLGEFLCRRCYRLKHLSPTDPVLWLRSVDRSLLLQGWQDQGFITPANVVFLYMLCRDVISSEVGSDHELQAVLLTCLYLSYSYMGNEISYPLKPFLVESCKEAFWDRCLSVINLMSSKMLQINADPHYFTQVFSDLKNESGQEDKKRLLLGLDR
IC50 [1] [µM],IC50 [2] [µM],Ratio IC50 [3],Compound,Activity (Vero)
0.681,–,–,COC(=O)CSc1nnc(Cc2c(NC(=O)CCl)sc3c2CCCC3)n1NC(=O)c1ccccc1,Non-toxic
0.617,–,–,O=C(CSc1nnc(Cc2c(NC(=O)CCl)sc3c2CCCC3)n1NC(=O)c1ccc(Cl)cc1)NNC(=O)c1ccccc1,Non-toxic
0.373,–,–,O=C(Cc1c(NC(=O)c2ccccc2)sc2c1CCCC2)NNC(=S)[S-].[K+],Non-toxic
0.336,–,–,CC(=O)Nn1c(Cc2c(NC(=O)CCl)sc3c2CCCC3)nnc1SCC(=O)N/N=C/c1ccccc1,Non-toxic
0.043,0.052,1.2,Nn1c(S)nnc1Cc1c(NC(=O)CCl)sc2c1CCCC2,Non-toxic
0.35,–,–,CC(=O)NNC(=O)CSc1nnc(Cc2c(NC(=O)CCl)sc3c2CCCC3)n1NC(=O)c1ccccc1,Non-toxic
0.695,–,–,COC(=O)CSc1nnc(Cc2c(NC(=O)CCl)sc3c2CCCC3)n1NC(C)=O,Non-toxic
0.363,–,–,CC(=O)Nn1c(Cc2c(NC(=O)CCl)sc3c2CCCC3)nnc1SCC(=O)NNC(=O)c1ccccc1,Non-toxic
0.229,–,–,O=C(CCl)NNC(=O)CSc1nnc(Cc2c(NC(=O)CCl)sc3c2CCCC3)n1NC(=O)c1ccc(Cl)cc1,Non-toxic
0.039,0.799,20.5,NNC(=O)CSc1nnc(Cc2c(NC(=O)CCl)sc3c2CCCC3)n1NC(=O)c1ccc(Cl)cc1,Non-toxic
0.343,–,–,O=C(CCl)Nc1sc2c(c1Cc1n[nH]c(=S)n1NC(=O)c1ccc(Cl)cc1)CCCC2,Non-toxic
0.058,1.14,19.6,N#CCSc1nnc(Cc2c(NC(=O)CCl)sc3c2CCCC3)n1NC(=O)c1ccc(Cl)cc1,Non-toxic
0.751,–,–,O=C(CCl)Nc1sc2c(c1Cc1n[nH]c(=S)n1NC(=O)c1ccccc1)CCCC2,Non-toxic
0.452,–,–,CC(=O)Nn1c(Cc2c(NC(=O)CCl)sc3c2CCCC3)nnc1SCC(=O)NNC(=O)CCl,Non-toxic
0.849,–,–,CC(=O)Nn1c(Cc2c(NC(=O)CCl)sc3c2CCCC3)nnc1SCSc1nnc(Cc2c(NC(=O)CCl)sc3c2CCCC3)n1NC(C)=O,Non-toxic
0.468,–,–,O=C(CSc1nnc(Cc2c(NC(=O)CCl)sc3c2CCCC3)n1NC(=O)c1ccccc1)NNC(=O)c1ccccc1,Non-toxic
0.468,–,–,CC(=O)NNC(=O)CSc1nnc(Cc2c(NC(=O)CCl)sc3c2CCCC3)n1NC(=O)c1ccc(Cl)cc1,Non-toxic
0.532,–,–,O=C(CCl)NNC(=O)CSc1nnc(Cc2c(NC(=O)CCl)sc3c2CCCC3)n1NC(=O)c1ccccc1,Non-toxic
0.061,1.32,21.6,CC(=O)Nn1c(Cc2c(NC(=O)CCl)sc3c2CCCC3)nnc1SCC#N,Non-toxic
5.15,–,–,CC(=O)Nc1sc2c(c1Cc1nnc(SCc3n[nH]c(=S)n3N)n1NC(C)=O)CCCC2,–
0.548,–,–,CC(=O)NNC(=O)CSc1nnc(Cc2c(NC(C)=O)sc3c2CCCC3)n1NC(=O)c1ccccc1,–
0.541,–,–,COC(=O)CSc1nnc(Cc2c(NCCC(=O)O)sc3c2CCCC3)n1NC(=O)c1ccc(Cl)cc1,–
0.367,–,–,CC(=O)Nc1sc2c(c1Cc1nnc(SCSc3nnc(Cc4c(NC(C)=O)sc5c4CCCC5)n3NC(=O)c3ccc(Cl)cc3)n1NC(=O)c1ccc(Cl)cc1)CCCC2,–

IC50 [1] [µM],IC50 [2] [µM],Ratio IC50 [3],Compound,Activity (Vero)
6.18,–,–,Nn1c(S)nnc1CSc1nnc(Cc2c(NC(=O)CCl)sc3c2CCCC3)n1NC(=O)c1ccccc1,Non-toxic
0.061,5.99,98.1,CC(=O)Nn1c(Cc2c(NC(=O)CCl)sc3c2CCCC3)nnc1SCC(=O)NN,Non-toxic
0.584,–,–,CC(=O)Nc1sc2c(c1Cc1nnc(S)n1NC(C)=O)CCCC2,–
0.249,–,–,CC(=O)Nc1sc2c(c1Cc1nnc(SCC(=O)NN)n1NC(C)=O)CCCC2,–
0.247,–,–,O=C(Cc1c(NC(=O)CCl)sc2c1CCCC2)NNC(=S)[S-].[K+],Non-toxic
5.85,–,–,Nn1c(S)nnc1CSc1nnc(Cc2c(NCCC(=O)O)sc3c2CCCC3)n1NC(=O)c1ccc(Cl)cc1,–
0.839,–,–,CC(=O)Nc1sc2c(c1Cc1nnc(SCSc3nnc(Cc4c(NC(C)=O)sc5c4CCCC5)n3NC(C)=O)n1NC(C)=O)CCCC2,–
0.434,–,–,O=C(O)CCNc1sc2c(c1Cc1nnc(SCC(=O)NNC(=O)c3ccccc3)n1NC(=O)c1ccccc1)CCCC2,–
0.572,–,–,CC(=O)Nc1sc2c(c1Cc1n[nH]c(=S)n1NC(=O)c1ccccc1)CCCC2,–
4.03,–,–,CC(=O)Nn1c(Cc2c(NC(=O)CCl)sc3c2CCCC3)nnc1SCc1n[nH]c(=S)n1N,Non-toxic
0.217,–,–,O=C(CSc1nnc(Cc2c(NC(=O)c3ccccc3)sc3c2CCCC3)n1NC(=O)c1ccc(Cl)cc1)N/N=C/c1ccccc1,–
0.358,–,–,CC(=O)Nn1c(Cc2c(NC(=O)c3ccccc3)sc3c2CCCC3)nnc1SCC(=O)NNC(=O)CCl,–
0.483,–,–,O=C(CSc1nnc(Cc2c(NC(=O)c3ccccc3)sc3c2CCCC3)n1NC(=O)c1ccc(Cl)cc1)NNC(=O)c1ccccc1,–
0.689,–,–,CC(=O)Nn1c(Cc2c(NC(=O)CCl)sc3c2CCCC3)n[nH]c1=S,Non-toxic
0.443,–,–,COC(=O)CSc1nnc(Cc2c(NC(=O)CCl)sc3c2CCCC3)n1NC(=O)c1ccc(Cl)cc1,Non-toxic
0.669,–,–,O=C(CCl)Nc1sc2c(c1Cc1nnc(SCSc3nnc(Cc4c(NC(=O)CCl)sc5c4CCCC5)n3NC(=O)c3ccccc3)n1NC(=O)c1ccccc1)CCCC2,Non-toxic
6.14,–,–,CC(=O)Nn1c(Cc2c(NC(=O)c3ccccc3)sc3c2CCCC3)nnc1SCc1nnc(S)n1N,–
0.397,–,–,O=C(O)CCNc1sc2c(c1CC(=O)NNC(=S)[S-])CCCC2.[K+],Non-toxic
0.037,0.487,13.2,NNC(=O)CSc1nnc(Cc2c(NC(=O)CCl)sc3c2CCCC3)n1NC(=O)c1ccccc1,Non-toxic
0.386,–,–,CC(=O)Nc1sc2c(c1Cc1nnc(S)n1N)CCCC2,Non-toxic
0.695,–,–,O=C(Nc1sc2c(c1Cc1nnc(SCSc3nnc(Cc4c(NC(=O)c5ccccc5)sc5c4CCCC5)n3NC(=O)c3ccccc3)n1NC(=O)c1ccccc1)CCCC2)c1ccccc1,–
0.192,–,–,CC(=O)Nc1sc2c(c1Cc1nnc(SCC(=O)NN)n1NC(=O)c1ccccc1)CCCC2,–
0.454,–,–,CC(=O)NNC(=O)CSc1nnc(Cc2c(NC(=O)CCl)sc3c2CCCC3)n1NC(C)=O,Non-toxic

IC50 [1] [µM],IC50 [2] [µM],Ratio IC50 [3],Compound,Activity (Vero)
0.393,–,–,CC(=O)Nc1sc2c(c1Cc1nnc(SCC#N)n1NC(=O)c1ccccc1)CCCC2,–
4.87,–,–,N#CCSc1nnc(Cc2c(NCCC(=O)O)sc3c2CCCC3)n1NC(=O)c1ccccc1,–
0.268,–,–,Nn1c(S)nnc1Cc1c(NCCC(=O)O)sc2c1CCCC2,Non-toxic
0.064,0.587,9.2,CC(=O)Nc1sc2c(c1Cc1nnc(SCC(=O)NN)n1NC(=O)c1ccc(Cl)cc1)CCCC2,–
0.657,–,–,N#CCSc1nnc(Cc2c(NC(=O)CCl)sc3c2CCCC3)n1NC(=O)c1ccccc1,Non-toxic
0.34,–,–,O=C(CCl)Nc1sc2c(c1Cc1nnc(SCSc3nnc(Cc4c(NC(=O)CCl)sc5c4CCCC5)n3NC(=O)c3ccc(Cl)cc3)n1NC(=O)c1ccc(Cl)cc1)CCCC2,Non-toxic
0.891,–,–,O=C(Nc1sc2c(c1Cc1nnc(S)n1NC(=O)c1ccccc1)CCCC2)c1ccccc1,–
0.436,–,–,CC(=O)Nc1sc2c(c1Cc1nnc(SCC(=O)NNC(=O)c3ccccc3)n1NC(C)=O)CCCC2,–
2.86,–,–,Nn1c(S)nnc1CSc1nnc(Cc2c(NC(=O)CCl)sc3c2CCCC3)n1NC(=O)c1ccc(Cl)cc1,Non-toxic
0.547,–,–,O=C(CCl)NNC(=O)CSc1nnc(Cc2c(NC(=O)c3ccccc3)sc3c2CCCC3)n1NC(=O)c1ccccc1,–
0.621,–,–,Nn1c(S)nnc1Cc1c(NC(=O)c2ccccc2)sc2c1CCCC2,Non-toxic
0.433,–,–,CC(=O)Nn1c(Cc2c(NCCC(=O)O)sc3c2CCCC3)n[nH]c1=S,–
0.641,–,–,CC(=O)Nn1c(Cc2c(NCCC(=O)O)sc3c2CCCC3)nnc1SCC#N,–
6.38,–,–,CC(=O)Nc1sc2c(c1Cc1nnc(SCc3nnc(S)n3N)n1NC(=O)c1ccc(Cl)cc1)CCCC2,–
0.641,–,–,CC(=O)NNC(=O)CSc1nnc(Cc2c(NC(C)=O)sc3c2CCCC3)n1NC(=O)c1ccc(Cl)cc1,–
0.346,–,–,CC(=O)Nc1sc2c(c1CC(=O)NNC(=S)[S-])CCCC2.[K+],Non-toxic
0.34,–,–,O=C(CCl)NNC(=O)CSc1nnc(Cc2c(NC(=O)c3ccccc3)sc3c2CCCC3)n1NC(=O)c1ccc(Cl)cc1,–
0.265,–,–,CC(=O)Nn1c(Cc2c(NCCC(=O)O)sc3c2CCCC3)nnc1SCC(=O)NNC(=O)CCl,–
0.455,–,–,NNC(=O)CSc1nnc(Cc2c(NCCC(=O)O)sc3c2CCCC3)n1NC(=O)c1ccccc1,–
0.032,0.56,> 17.5,O=C(CSc1nnc(Cc2c(NC(=O)CCl)sc3c2CCCC3)n1NC(=O)c1ccccc1)N/N=C/c1ccccc1,Non-toxic
0.435,–,–,O=C(CSc1nnc(Cc2c(NC(=O)c3ccccc3)sc3c2CCCC3)n1NC(=O)c1ccccc1)N/N=C/c1ccccc1,–
0.035,0.048,1.4,O=C(CSc1nnc(Cc2c(NC(=O)CCl)sc3c2CCCC3)n1NC(=O)c1ccc(Cl)cc1)N/N=C/c1ccccc1,Non-toxic
